# Measurements: patent publication US20260021061A1, “ARIADNE AND ANALOGS FOR THE TREATMENT OF NEUROLOGICAL AND NEUROMUSCLAR DISORDERS” (priority 2022, published 2026)
# Experiments:
# 5-HT2A = 5-HT2A (Homo sapiens, UniProt P28223); assay: Calcium flux assay; assay type: cell-based
# Protocol: Therefore, an orthogonal assay measuring calcium flux was also performed for the 5-HT2 receptors (Klein et al., 2020).
# [1] = tested on: auxilin knockout (KO) mice; assay: Hind limb clasping in auxilin KO mouse model of Parkinson's Disease; assay type: in vivo; settings: Aux-KO mice; 10 mg/kg intraperitoneal; 15 to 30 minutes after treatment
# Description: (§1) R-Ariadne ameliorates motor abnormalities in a mouse model of Parkinson's Disease. In the 1978 patent from the Bristol Laboratories, the inventors noted complete remission of Parkinson's symptoms in two patients (Partyka el al., U.S. Pat. No. 4,105,695, 1978). To address and examine these claims via reverse translation in mice, we used a novel model of PD based on auxilin knockout (KO) mice (Vidyadhara et al., 2022). Auxilin is a clathrin uncoating protein that participates in clathrin mediated endocytosis of synaptic vesicles (SV), enabling SV recycling and neurotransmission (Vidyadhara et al., 2022). Loss-of-function mutations in auxilin (DNAJC6/PARK19) cause PD. Auxilin KO mice display cardinal features of PD such as progressive motor deficits, nigral dopaminergic neuronal loss, α-synuclein pathology, and neuroinflammation. 9-12 month old Aux-KO mice were previously shown to respond to L-DOPA treatment, which ameliorated PD-like motor abnormalities (Vidyadhara et al., 2022). […] The balance beam test evaluates fine motor skills such as ability to walk on a raised narrow beam to reach a safety box, measured as a number of runs/minute and time taken to cross the beam (FIGS. 9-10). […]
# mice = assay: Novelty suppressed feeding (NSF); assay type: in vivo, mouse; settings: 7 days post-drug administration; 10 mg/kg
# Protocol: FIGS. 7A-D Effect of Ariadne in behavioral conflict paradigms. (a) Survival plot of effect of (R)-Ariadne (10 mg/kg) on latency to feed in the novelty suppressed feeding (NSF) test 7 days post a single drug administration. (b) Effect of 6 mg/kg and 10 mg/kg (R)-Ariadne on latency to feed in the novelty suppressed feeding (NSF) test 7 days post a single drug administration. (c) Effect of (R)-Ariadne and (±)-DOPR on the time spent in the open vs closed arms and (d) corresponding arm entries 30 minutes and 4 hours post a single subcutaneous injection.
# [2] = tested on: auxilin knockout (KO) mice; assay: Balance beam test in auxilin KO mouse model of Parkinson's Disease; assay type: in vivo; settings: Aux-KO mice 9-12 months; 10 mg/kg intraperitoneal; 15 to 30 minutes after treatment
# Description: as §1
# [3] = tested on: auxilin knockout (KO) mice; assay: Open field test in auxilin KO mouse model of Parkinson's Disease; assay type: in vivo; settings: Aux-KO mice; 10 mg/kg intraperitoneal; confounded by learning effects
# C57BL/6J mice = assay: Open field locomotion in mice; assay type: in vivo, mouse
# [4] = target: T1, Serotonin (5-Hydroxytryptamine) 5-HT2A (Homo sapiens, UniProt P28223); assay: SafetyScreen44 271650; assay type: binding; settings: 10 μM, [3H]Ketanserin, recombinant
# T1 construct: purchased Eurofins-Panlabs (contract screen SafetyScreen44) assay ID 271650
# T1 sequence (P28223 whole entry): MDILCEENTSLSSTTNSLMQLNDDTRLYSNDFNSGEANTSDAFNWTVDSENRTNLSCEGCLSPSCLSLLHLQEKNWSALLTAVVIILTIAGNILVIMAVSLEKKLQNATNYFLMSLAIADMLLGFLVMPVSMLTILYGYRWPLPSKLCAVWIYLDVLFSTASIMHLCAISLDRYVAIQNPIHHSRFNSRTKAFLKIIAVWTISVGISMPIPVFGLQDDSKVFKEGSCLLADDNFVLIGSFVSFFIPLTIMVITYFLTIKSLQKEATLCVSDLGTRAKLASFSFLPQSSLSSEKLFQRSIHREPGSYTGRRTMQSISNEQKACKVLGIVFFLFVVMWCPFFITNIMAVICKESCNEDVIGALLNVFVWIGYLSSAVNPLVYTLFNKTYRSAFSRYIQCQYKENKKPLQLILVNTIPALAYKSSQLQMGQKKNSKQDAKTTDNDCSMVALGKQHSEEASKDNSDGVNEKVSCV
# Protocol: (§2) A broad screen of 44 molecular targets (SafetyScreen44, Eurofins-Panlabs) for Ariadne were performed, which includes G protein-coupled receptors, steroid nuclear receptors, ion channels, neurotransmitter transporters, and metabolic and signaling enzymes. Only two molecular targets, 5-HT2A and 5-HT2B receptors, emerged above the positive hit threshold, defined as 50% displacement of standard radioligands by 10 uM concentration of Ariadne (FIG. 1b, and Table 1).
# (§3) For species, “H”=human, “R”=rat. Test compound screened at all targets at concentration of 10 μM.
# Sodium Channel, Site 2 = assay: SafetyScreen44 279510; assay type: binding, human; settings: 10 μM; [3H]Batrachotoxinin; recombinant
# Protocol: as §2, §3
# Muscarinic M2 = target: T2, Muscarinic M2 (Homo sapiens, UniProt P08172); assay: SafetyScreen44 252710; assay type: binding; settings: 10 μM; [3H]N-Methylscopolamine; recombinant
# T2 construct: purchased Eurofins-Panlabs (contract screen SafetyScreen44) assay ID 252710
# T2 sequence (P08172 whole entry): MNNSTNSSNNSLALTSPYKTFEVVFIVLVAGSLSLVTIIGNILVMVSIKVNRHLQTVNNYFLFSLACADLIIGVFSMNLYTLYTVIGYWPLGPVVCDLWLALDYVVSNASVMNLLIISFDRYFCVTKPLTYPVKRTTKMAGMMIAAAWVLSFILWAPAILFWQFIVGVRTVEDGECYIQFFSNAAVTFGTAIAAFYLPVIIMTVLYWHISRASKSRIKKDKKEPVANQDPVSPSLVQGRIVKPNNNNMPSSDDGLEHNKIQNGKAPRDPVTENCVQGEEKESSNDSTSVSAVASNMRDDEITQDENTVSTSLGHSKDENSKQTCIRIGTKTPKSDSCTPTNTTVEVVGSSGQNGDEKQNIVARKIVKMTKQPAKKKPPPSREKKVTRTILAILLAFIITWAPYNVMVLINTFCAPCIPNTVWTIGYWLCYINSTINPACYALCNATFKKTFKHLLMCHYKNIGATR
# Protocol: as §2, §3
# Adenosine A2A = target: T3, Adenosine A2A (Homo sapiens, UniProt P29274); assay: SafetyScreen44 200610; assay type: binding; settings: 10 μM; [3H]CGS-21680; recombinant
# T3 construct: Eurofins-Panlabs (contract screen) 200610
# T3 sequence (P29274 whole entry): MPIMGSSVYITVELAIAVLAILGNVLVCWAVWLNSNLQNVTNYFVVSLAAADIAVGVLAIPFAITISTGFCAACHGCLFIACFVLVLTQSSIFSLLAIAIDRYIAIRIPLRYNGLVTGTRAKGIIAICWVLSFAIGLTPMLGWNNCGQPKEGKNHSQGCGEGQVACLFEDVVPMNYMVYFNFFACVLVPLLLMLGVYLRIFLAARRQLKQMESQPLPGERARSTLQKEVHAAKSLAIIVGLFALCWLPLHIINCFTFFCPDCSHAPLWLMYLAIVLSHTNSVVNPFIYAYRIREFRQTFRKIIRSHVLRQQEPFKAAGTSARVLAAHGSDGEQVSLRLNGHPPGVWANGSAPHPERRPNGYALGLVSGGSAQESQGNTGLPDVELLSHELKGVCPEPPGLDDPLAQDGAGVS
# Protocol: as §2, §3
# Phosphodiesterase PDE3A = target: T4, Phosphodiesterase PDE3A (Homo sapiens, UniProt Q14432); assay: SafetyScreen44 152300; assay type: biochemical; settings: 10 μM; FAM-cAMP; recombinant
# T4 construct: Eurofins-Panlabs (contract screen) 152300
# T4 sequence (Q14432 whole entry): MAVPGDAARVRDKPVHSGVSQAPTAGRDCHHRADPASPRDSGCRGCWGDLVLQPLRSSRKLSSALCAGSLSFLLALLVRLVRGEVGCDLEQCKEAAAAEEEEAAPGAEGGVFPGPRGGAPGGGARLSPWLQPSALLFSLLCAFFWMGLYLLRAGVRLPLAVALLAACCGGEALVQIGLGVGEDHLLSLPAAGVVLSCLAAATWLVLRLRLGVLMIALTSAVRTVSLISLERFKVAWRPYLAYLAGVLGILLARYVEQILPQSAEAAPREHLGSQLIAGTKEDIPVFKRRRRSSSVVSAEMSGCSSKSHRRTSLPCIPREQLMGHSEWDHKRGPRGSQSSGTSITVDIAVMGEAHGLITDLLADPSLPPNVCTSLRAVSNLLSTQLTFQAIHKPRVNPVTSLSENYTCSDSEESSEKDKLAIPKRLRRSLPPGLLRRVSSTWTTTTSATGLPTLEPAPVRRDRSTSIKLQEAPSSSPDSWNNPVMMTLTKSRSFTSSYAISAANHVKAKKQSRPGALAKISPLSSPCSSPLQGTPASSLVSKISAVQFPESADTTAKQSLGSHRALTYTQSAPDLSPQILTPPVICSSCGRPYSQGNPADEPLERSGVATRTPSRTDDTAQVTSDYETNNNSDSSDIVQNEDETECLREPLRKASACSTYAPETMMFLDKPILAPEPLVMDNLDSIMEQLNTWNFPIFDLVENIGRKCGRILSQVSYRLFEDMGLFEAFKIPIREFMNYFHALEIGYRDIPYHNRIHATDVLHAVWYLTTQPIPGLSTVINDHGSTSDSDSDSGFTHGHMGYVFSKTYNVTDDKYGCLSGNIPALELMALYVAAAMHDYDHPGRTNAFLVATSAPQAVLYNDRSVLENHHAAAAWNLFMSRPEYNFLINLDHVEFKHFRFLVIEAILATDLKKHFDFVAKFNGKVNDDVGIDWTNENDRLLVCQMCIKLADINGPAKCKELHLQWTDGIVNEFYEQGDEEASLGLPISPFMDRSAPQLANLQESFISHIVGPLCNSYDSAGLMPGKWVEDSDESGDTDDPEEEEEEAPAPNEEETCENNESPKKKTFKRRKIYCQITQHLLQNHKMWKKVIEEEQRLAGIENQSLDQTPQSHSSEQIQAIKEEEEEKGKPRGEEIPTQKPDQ
# Protocol: as §2, §3
# Dopamine D2S = target: T5, Dopamine D2S (Homo sapiens, UniProt P14416); assay: SafetyScreen44 219700; assay type: binding; settings: 10 μM; [3H]Spiperone; recombinant
# T5 construct: Eurofins-Panlabs (contract screen) 219700
# T5 sequence (P14416 1-414 isoform P14416-2): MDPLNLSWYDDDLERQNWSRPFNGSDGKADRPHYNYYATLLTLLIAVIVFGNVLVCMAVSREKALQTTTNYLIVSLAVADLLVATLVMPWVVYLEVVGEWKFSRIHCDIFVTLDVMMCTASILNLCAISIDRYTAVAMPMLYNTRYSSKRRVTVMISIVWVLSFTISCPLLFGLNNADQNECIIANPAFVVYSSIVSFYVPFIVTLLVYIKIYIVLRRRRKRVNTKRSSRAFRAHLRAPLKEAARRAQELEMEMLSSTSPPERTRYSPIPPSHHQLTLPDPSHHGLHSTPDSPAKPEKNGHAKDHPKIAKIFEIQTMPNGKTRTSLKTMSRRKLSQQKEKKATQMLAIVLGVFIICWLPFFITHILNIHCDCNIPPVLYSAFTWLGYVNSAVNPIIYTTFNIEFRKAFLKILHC
# Protocol: as §2, §3
# Glutamate, NMDA, Agonism = assay: SafetyScreen44 232810; assay type: binding, rat; settings: 10 μM; [3H]CGP-39653; cerebral cortex
# Protocol: as §2, §3
# Cannabinoid CB2 = target: T6, Cannabinoid CB2 (Homo sapiens, UniProt P34972); assay: SafetyScreen44 217100; assay type: binding; settings: 10 μM; [3H]WIN-55, 212-2; recombinant
# T6 construct: Eurofins-Panlabs (contract screen) 217100
# T6 sequence (P34972 whole entry): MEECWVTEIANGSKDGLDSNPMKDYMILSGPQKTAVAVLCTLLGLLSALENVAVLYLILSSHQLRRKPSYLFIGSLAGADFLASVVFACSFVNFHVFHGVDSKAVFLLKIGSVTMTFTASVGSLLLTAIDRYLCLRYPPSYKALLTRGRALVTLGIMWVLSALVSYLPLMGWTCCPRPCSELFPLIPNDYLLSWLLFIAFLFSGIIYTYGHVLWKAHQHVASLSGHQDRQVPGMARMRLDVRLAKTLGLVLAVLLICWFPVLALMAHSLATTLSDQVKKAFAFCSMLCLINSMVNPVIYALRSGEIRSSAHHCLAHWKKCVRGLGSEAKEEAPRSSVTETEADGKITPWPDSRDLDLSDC
# Protocol: as §2, §3
# Potassium Channel [KA] = assay: SafetyScreen44 265510; assay type: binding, rat; settings: 10 μM; [125I]alpha-Dendrotoxin; cerebral cortex
# Protocol: as §2, §3
# Monoamine Oxidase MAO-A = target: T7, Monoamine Oxidase MAO-A (Homo sapiens, UniProt P21397); assay: SafetyScreen44 140010; assay type: biochemical; settings: 10 μM; Kynuramine; recombinant
# T7 construct: Eurofins-Panlabs (contract screen) 140010
# T7 sequence (P21397 whole entry): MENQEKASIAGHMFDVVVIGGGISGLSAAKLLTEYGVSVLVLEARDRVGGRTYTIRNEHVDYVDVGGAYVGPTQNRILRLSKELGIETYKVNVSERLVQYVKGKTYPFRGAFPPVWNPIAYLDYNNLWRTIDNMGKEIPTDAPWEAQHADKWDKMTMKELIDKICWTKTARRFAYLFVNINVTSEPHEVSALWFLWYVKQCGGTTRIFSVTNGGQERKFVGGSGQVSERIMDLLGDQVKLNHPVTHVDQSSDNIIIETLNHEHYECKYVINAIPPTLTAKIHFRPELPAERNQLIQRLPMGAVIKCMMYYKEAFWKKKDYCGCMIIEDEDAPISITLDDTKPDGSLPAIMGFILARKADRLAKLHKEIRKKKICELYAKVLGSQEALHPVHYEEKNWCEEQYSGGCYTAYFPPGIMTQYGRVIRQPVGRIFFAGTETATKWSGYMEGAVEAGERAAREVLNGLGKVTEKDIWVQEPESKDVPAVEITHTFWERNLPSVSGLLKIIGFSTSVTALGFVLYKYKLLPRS
# Protocol: as §2, §3
# Adrenergic β1 = target: T8, Adrenergic β1 (Homo sapiens, UniProt P08588); assay: SafetyScreen44 204010; assay type: binding; settings: 10 μM; [125I]Cyanopindolol; recombinant
# T8 construct: Eurofins-Panlabs (contract screen) 204010
# T8 sequence (P08588 whole entry): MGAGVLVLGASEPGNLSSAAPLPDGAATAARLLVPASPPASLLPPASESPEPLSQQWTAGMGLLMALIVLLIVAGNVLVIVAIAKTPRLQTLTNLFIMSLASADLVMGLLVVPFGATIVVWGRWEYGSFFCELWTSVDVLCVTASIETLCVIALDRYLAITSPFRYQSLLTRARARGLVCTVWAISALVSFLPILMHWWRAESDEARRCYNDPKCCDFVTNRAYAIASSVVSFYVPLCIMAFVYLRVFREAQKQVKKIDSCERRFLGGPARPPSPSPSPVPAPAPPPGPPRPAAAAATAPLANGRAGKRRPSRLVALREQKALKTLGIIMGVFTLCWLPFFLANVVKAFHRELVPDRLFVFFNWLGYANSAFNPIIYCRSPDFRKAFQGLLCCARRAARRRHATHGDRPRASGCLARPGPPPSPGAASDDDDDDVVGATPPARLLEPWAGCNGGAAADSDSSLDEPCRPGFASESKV
# Protocol: as §2, §3
# 5-HT2A, sequence (P28223 whole entry): as the sequence (P28223 whole entry) above
compound,measurement,setting,value
CC[C@@H](N)Cc1cc(OC)c(C)cc1OC [(R)-Ariadne],EC50,5-HT2A,30 nM
same,Emax,"5-HT2A; read-out: Emax relative to 5-HT, calcium flux",96%
same,clasping duration,[1],down to zero
same,hindlimb clasping score,[1],down to zero
same,latency to bite the presented food pellets,mice,dose-dependent trend toward reducing latency
same,number of balance beam runs per minute,[2],significantly higher and comparable to WT mice
same,overall locomotory deficits in the open field,[3],partially rescued
same,general locomotion in novel environment,"C57BL/6J mice; 10 mg/kg, s.c. (peak HTR dose)",minor sedative effect
same,general locomotion in novel environment,C57BL/6J mice; 30 mg/kg,marked sedation
same,time in the center of the arena,C57BL/6J mice; open field,trend for spending less time in the center
"CCC(N)Cc1cc(OC)c(C)cc1OC (racemic) [Compound 32, 1-(2,5-dimethoxy-4-methylphenyl)butan-2-amine]",% Response,[4]; listed as (rac)-Ariadne,more than 50%
same,% Response,[4]; listed as Ariadne,72%
same,% Response,"Sodium Channel, Site 2",47%
same,% Response,Muscarinic M2,0%
same,% Response,Adenosine A2A,10%
same,% Response,Phosphodiesterase PDE3A,−4%
same,% Response,Dopamine D2S,1%
same,% Response,"Glutamate, NMDA, Agonism",−5%
same,% Response,Cannabinoid CB2,−7%
same,% Response,Potassium Channel [KA],−6%
same,% Response,Monoamine Oxidase MAO-A,−3%
same,% Response,Adrenergic β1,17%
